Results from BigSolDB 2.1.

SMILES: N[C@@H](Cc1ccccc1)C(=O)O
- solubility (mole fraction) (in ethanol, 288.15 K): 8.9e-05
- solubility (mole fraction) (in ethanol, 293.15 K): 9.96e-05
- solubility (mole fraction) (in ethanol, 298.15 K): 0.000116
- solubility (mole fraction) (in ethanol, 303.15 K): 0.000134
- solubility (mole fraction) (in ethanol, 308.15 K): 0.00016
- solubility (mole fraction) (in methanol, 288.15 K): 0.00032
- solubility (mole fraction) (in methanol, 293.15 K): 0.000416
- solubility (mole fraction) (in methanol, 298.15 K): 0.000563
- solubility (mole fraction) (in methanol, 303.15 K): 0.00065
- solubility (mole fraction) (in methanol, 308.15 K): 0.000743
- solubility (mole fraction) (in water, 288.15 K): 0.00219
- solubility (mole fraction) (in water, 293.15 K): 0.00247
- solubility (mole fraction) (in water, 298.15 K): 0.00277
- solubility (mole fraction) (in water, 303.15 K): 0.00312
- solubility (mole fraction) (in water, 308.15 K): 0.00348
